For series [1] the following is noted: cited from earlier work.
A further series deals with swine. In words: Pharmacodynamic response in dosed swine. Format: in vivo.
Details of series [2]: species or system swine (female Yorkshire). Particulars: in vivo.
The nature of series [3]: In vivo pharmacokinetics of insulin and GLP-1 analog in swine. To be noted: removed from dataset.
[4] abbreviates: 0.24 mg, injection (intramuscular) and L-SOMA groups.

GLP-1: the “ability to traverse the stomach lining for systemic uptake” value in series [1] (in vivo) was “severely limited ability”. Also, the “bioavailability when using a permeation enhancer” value in series [1] (not told) is listed as “approximately 1%”.
Take `CNC[C@H](O)c1ccc(O)c(O)c1` [epinephrine]: in the series on swine (setting [4]), the blood glucose response result is reported as “rapid rise” and the heart rate response result was “rapid rise in heart rate”. The “systemic uptake after endoscopic gavage (negative control)” value in series [2] was “negligible uptake”.
As to recombinant human insulin, the plasma glucose response result with swine (4 IU, injection and L-SOMA groups) was “immediate hypoglycemic onset”. Further, the “plasma insulin level at t=0” value in series [3] (one L-SOMA-dosed swine, possible sample contamination) is 41.6 pM. Further, in series [3] (same single L-SOMA-dosed swine, at 45 minutes), the peak plasma level was 136 pM.
Regarding adalimumab, the “systemic uptake after endoscopic gavage (negative control)” value in series [2] is “negligible uptake”.
On to semaglutide, for which, in series [1] (in vivo, po), the oral bioavailability result is recorded as “approximately 1%”.

The values are drawn from PMC8766875 (Nature biotechnology, 2021).
